Measurements as given in patent US20220184240A1, “ORGANIC COMPOUNDS” (INTRA-CELLULAR THERAPIES, INC., priority 2019, published 2022).
Values belong to the compound of their own block, whether it stands above or below them.

Legend:
PDE1 in striatal slices [1] = test: Striatal slice cGMP levels after K+ depolarization; type: cell-based; details: 1 μM compound preincubation, 1-minute high K+ depolarization
Description: FIG. 1 illustrates the effect of PDE1 inhibition on striatal cGMP levels. Striatal slices were preincubated with either vehicle or compound, followed by a 1-minute stimulation with high K+ or vehicle. cGMP levels were normalized to baseline levels for comparison. […] PDE1 inhibition by 1 μM ITI-041 or 1 μM ITI-214 in the presence of K+ depolarization (striped bars).
Striatal tissue slice preparations were used to further study regulation of PDE1 by intracellular calcium concentration. The striatal slice preparation maintains a portion of the circuitry of the intact striatum including interneurons, nerve terminals from cortical and nigral neuronal inputs, and medium spiny neurons, which account for the majority (95%) of neurons. Depolarization of the cell membrane by increasing external potassium (K+) concentration is a well-established method of stimulating striatal slices, particularly to trigger release of neurotransmitters such as glutamate from the nerve terminals. Under these conditions, both voltage gated calcium channels and NMDA receptors are expected to open, allowing an influx of calcium into the cells. The increase in intracellular calcium can both activate PDE1 in the medium spiny neurons and activate nitric oxide synthase (NOS) in the interneurons via calcium-calmodulin binding. […]

PDE1 in striatal slices [2] = test: Striatal slice cGMP levels with ionomycin; type: cell-based; details: ionomycin 10 μM alone, in Krebs buffer
Description: (§1) FIG. 2 illustrates that increased Ca2+ is sufficient to unmask the active site of PDE1 and allow PDE1 inhibitor binding to the active site therefore increasing cGMP. Increased intracellular calcium is sufficient to increase cGMP levels in the presence of PDE1 inhibitor.
(§2) The calcium ionophore ionomycin was used to control intracellular calcium concentrations in the absence of depolarization. Ionomycin (10 μM, in Krebs buffer) increased intracellular calcium, as confirmed by increased calcium-sensitive phosphorylation of Ca2+/calmodulin-dependent protein kinase II (CaMKII), as shown in FIG. 2A. […] Elimination of extracellular calcium by replacing the calcium chloride in the Krebs solution with 3 mM EGTA prevented the elevation in cGMP seen with PDE1 inhibition and ionomycin.

[3] = test system: Ca2+/calmodulin-dependent protein kinase II (CaMKII); test: CaMKII phosphorylation (Western blotting); type: cell-based; details: ionomycin 10 μM, in Krebs buffer
Description: as §1, §2

[4] = target: Compound 2 binding to PDE1 in mouse cortex; test: EGTA titration of Compound 2 binding (calcium dependency)
Description: FIG. 4 illustrates Ca^2+-dependent binding of Compound 2, as defined in Example 1, to mouse cortex. Binding of the radioligand is prevented in the presence of EGTA, a specific chelator of calcium
In a further study, binding of Compound 2 (1.5 nM) to mouse cortex was titrated with different concentration of the calcium chelator EGTA to determine the calcium dependency of the ligand binding. […] Levels of binding activity remaining in the presence of excess (200 uM) EGTA was approximately 5% relative to the binding levels in the absence of EGTA.

[5] = PDE panel inhibitory constant (Ki) determination; type: biochemical; details: PDE1D
Description: (§3) Inhibitory constant (Ki) values for Compound 1 were determined against a full panel of phosphodiesterase family members. […] In contrast, potency of Compound 1 for PDE1 A, B and C is roughly equivalent.

[6] = target: T1, (Homo sapiens, UniProt Q08499); test: PDE panel inhibitory constant (Ki) determination; type: biochemical; details: PDE1D
T1 construct: Ki; other: PDE1D
Description: as §3

PDE1 (Bovine Brain) [7] = test: PDE panel inhibitory constant (Ki) determination; type: biochemical
Description: as §3

PDE1 (Bovine Brain) [8] = target: T2, PDE1 (Bovine Brain); test: PDE panel inhibitory constant (Ki) determination; type: biochemical
T2 construct: Ki; other: PDE1 (Bovine Brain)
Description: as §3

PDE10A = PDE10A (Homo sapiens, UniProt Q9Y233); test: PDE panel inhibitory constant (Ki) determination; type: biochemical
Description: as §3

PDE11A = PDE11A (Homo sapiens, UniProt Q9HCR9); test: PDE panel inhibitory constant (Ki) determination; type: biochemical
Description: as §3

PDE1A = PDE1A (Homo sapiens, UniProt P54750); test: PDE panel inhibitory constant (Ki) determination; type: biochemical
Description: as §3

PDE1B = PDE1B (Homo sapiens, UniProt Q01064); test: PDE panel inhibitory constant (Ki) determination; type: biochemical
Description: as §3

PDE1C = PDE1C (Homo sapiens, UniProt Q14123); test: PDE panel inhibitory constant (Ki) determination; type: biochemical
Description: as §3

PDE2A = PDE2A (Homo sapiens, UniProt O00408); test: PDE panel inhibitory constant (Ki) determination; type: biochemical
Description: as §3

PDE3B = PDE3B (Homo sapiens, UniProt Q13370); test: PDE panel inhibitory constant (Ki) determination; type: biochemical
Description: as §3

PDE4A = PDE4A (Homo sapiens, UniProt P27815); test: PDE panel inhibitory constant (Ki) determination; type: biochemical
Description: as §3

PDE5 = PDE5 (Homo sapiens, UniProt O76074); test: PDE panel inhibitory constant (Ki) determination; type: biochemical
Description: as §3

PDE6 [9] = test: PDE panel inhibitory constant (Ki) determination; type: biochemical
Description: as §3

PDE6 [10] = target: T3, PDE6; test: PDE panel inhibitory constant (Ki) determination; type: biochemical
T3 construct: Ki; other: PDE6
Description: as §3

PDE7B = PDE7B (Homo sapiens, UniProt Q9NP56); test: PDE panel inhibitory constant (Ki) determination; type: biochemical
Description: as §3

PDE8A = PDE8A (Homo sapiens, UniProt O60658); test: PDE panel inhibitory constant (Ki) determination; type: biochemical
Description: as §3

PDE9A = PDE9A (Homo sapiens, UniProt O76083); test: PDE panel inhibitory constant (Ki) determination; type: biochemical
Description: as §3

[11] = test system: PDE1 enzymes versus all other PDE families; test: Selectivity over full panel of phosphodiesterase family members; type: biochemical
Description: as §3

Sequence of PDE8A (O60658 whole entry, species assumed): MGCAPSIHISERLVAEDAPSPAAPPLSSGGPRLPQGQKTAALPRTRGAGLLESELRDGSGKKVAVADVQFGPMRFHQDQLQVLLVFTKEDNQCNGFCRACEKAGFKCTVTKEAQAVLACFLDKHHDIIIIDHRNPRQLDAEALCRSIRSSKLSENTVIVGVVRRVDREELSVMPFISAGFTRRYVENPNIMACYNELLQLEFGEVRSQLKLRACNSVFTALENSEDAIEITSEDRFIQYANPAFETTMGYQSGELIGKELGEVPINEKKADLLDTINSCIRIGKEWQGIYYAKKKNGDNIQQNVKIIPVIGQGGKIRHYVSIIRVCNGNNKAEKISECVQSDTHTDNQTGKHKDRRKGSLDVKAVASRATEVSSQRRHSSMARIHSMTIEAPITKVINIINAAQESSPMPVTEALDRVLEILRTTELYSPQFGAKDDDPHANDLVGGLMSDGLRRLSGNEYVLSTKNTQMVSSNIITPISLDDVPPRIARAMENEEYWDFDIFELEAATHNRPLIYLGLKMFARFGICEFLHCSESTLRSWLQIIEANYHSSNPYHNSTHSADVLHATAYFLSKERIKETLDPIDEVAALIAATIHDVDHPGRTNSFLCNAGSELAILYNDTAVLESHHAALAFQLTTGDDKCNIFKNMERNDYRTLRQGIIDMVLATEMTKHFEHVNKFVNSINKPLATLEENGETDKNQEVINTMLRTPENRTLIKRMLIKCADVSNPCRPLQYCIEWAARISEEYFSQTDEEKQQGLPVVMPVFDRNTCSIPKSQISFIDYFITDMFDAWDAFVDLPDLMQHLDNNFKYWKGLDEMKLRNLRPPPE
Sequence of PDE10A (Q9Y233 whole entry, species assumed): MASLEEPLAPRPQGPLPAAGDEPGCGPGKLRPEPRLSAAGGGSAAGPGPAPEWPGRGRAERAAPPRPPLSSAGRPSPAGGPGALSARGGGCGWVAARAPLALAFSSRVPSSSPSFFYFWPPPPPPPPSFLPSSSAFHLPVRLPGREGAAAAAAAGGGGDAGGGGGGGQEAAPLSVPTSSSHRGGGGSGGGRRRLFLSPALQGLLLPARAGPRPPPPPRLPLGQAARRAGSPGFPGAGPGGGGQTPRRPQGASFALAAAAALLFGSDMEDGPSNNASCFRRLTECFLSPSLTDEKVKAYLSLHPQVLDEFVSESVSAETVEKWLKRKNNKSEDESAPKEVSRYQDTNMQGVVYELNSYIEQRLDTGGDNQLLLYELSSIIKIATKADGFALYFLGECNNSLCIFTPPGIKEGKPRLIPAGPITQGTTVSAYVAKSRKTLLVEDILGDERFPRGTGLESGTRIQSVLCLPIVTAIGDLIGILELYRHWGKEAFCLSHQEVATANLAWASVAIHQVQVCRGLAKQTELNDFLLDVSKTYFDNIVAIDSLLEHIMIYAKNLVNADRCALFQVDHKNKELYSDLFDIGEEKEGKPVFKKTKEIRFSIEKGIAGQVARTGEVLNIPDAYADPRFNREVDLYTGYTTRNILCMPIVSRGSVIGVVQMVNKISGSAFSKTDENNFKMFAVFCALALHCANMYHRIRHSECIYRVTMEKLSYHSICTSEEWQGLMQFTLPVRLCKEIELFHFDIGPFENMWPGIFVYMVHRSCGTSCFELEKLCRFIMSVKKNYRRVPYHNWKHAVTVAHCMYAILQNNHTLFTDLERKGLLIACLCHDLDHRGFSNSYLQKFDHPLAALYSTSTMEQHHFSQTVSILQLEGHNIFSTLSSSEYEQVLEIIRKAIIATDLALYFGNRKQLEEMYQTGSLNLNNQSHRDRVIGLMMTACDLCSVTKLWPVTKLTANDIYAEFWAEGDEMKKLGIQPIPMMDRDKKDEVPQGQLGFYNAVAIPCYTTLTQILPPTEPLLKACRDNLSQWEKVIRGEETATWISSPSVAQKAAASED
Sequence of PDE9A (O76083 whole entry, species assumed): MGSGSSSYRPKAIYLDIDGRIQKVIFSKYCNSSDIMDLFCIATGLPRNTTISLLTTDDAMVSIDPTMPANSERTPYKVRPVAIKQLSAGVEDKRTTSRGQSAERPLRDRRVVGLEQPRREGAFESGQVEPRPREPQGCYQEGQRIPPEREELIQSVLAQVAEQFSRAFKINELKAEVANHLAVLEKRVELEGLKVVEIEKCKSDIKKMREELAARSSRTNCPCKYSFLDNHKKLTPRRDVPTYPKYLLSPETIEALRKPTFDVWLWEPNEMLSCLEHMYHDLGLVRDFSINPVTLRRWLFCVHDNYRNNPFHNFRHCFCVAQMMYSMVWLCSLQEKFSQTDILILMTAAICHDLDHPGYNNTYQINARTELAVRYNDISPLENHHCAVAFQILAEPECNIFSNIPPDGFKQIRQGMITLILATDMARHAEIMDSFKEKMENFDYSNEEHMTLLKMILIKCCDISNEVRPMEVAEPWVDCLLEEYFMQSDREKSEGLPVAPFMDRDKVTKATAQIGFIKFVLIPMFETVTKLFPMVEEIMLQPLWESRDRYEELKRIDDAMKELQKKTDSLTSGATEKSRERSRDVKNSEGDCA
Sequence of PDE7B (Q9NP56 whole entry, species assumed): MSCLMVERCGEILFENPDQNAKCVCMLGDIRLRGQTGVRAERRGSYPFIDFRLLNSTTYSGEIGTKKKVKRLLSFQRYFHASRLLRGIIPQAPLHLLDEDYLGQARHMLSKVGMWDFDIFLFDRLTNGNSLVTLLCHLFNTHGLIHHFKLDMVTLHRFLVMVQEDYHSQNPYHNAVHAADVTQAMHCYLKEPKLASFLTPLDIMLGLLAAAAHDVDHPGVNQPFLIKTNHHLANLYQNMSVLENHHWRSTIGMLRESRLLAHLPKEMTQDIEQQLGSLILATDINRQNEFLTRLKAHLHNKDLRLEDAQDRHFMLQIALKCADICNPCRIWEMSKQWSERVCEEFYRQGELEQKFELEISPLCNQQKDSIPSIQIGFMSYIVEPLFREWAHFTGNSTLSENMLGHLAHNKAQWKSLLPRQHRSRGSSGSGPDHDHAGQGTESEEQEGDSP
Sequence of PDE2A (O00408 whole entry, species assumed): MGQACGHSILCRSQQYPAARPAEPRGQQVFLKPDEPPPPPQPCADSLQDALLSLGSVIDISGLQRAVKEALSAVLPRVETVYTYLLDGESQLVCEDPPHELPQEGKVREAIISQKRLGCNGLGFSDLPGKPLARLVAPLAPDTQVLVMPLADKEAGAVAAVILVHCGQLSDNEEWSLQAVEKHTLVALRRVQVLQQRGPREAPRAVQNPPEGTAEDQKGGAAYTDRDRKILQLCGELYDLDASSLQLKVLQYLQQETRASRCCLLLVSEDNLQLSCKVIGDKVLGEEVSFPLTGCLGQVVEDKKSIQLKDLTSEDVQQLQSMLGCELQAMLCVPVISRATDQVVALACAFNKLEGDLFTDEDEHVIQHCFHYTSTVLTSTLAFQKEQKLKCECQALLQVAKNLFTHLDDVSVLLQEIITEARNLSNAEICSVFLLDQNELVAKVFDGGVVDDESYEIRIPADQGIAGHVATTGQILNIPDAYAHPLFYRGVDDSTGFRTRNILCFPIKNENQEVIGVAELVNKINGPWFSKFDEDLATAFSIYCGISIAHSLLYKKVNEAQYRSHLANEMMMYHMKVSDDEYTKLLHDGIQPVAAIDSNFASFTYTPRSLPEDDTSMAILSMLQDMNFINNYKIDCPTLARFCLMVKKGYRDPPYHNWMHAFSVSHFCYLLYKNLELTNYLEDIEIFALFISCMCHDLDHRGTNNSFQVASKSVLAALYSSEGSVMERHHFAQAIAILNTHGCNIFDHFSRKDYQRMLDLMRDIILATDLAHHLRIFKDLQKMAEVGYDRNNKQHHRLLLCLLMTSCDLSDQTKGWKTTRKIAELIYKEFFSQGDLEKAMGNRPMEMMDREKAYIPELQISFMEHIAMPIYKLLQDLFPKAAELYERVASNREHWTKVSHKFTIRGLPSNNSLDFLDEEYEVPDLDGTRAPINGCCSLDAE
Sequence of PDE1A (P54750 whole entry, species assumed): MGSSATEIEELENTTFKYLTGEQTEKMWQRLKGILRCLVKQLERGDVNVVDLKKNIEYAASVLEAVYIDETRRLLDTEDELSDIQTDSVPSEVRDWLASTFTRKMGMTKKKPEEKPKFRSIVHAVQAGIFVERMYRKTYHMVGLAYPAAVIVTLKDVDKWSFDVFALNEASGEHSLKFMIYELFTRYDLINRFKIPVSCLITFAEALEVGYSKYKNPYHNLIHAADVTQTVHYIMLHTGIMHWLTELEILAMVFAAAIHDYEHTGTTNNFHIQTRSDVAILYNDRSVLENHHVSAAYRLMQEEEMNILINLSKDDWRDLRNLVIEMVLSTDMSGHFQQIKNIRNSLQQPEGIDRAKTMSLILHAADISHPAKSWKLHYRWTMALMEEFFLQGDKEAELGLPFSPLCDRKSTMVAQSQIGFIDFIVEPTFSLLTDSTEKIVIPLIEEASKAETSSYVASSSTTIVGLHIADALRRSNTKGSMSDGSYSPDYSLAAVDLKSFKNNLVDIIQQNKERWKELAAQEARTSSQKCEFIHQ
Sequence of PDE1B (Q01064 whole entry, species assumed): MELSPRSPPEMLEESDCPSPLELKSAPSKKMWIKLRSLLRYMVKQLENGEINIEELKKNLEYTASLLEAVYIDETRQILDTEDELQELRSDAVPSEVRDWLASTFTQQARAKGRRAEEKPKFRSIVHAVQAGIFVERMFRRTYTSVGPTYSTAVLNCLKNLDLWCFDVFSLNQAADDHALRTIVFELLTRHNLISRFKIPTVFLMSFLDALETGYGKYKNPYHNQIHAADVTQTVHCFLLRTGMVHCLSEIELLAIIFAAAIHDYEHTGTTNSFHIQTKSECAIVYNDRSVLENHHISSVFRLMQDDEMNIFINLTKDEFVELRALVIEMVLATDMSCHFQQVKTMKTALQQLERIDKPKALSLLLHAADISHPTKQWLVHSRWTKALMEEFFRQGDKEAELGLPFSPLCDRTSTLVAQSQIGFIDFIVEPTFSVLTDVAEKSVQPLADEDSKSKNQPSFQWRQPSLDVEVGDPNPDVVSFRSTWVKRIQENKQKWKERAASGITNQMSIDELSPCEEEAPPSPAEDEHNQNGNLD

SMILES: CN1C(=O)c2c(nn(Cc3ccc(-c4cccc(F)n4)cc3)c2Nc2ccccc2)N2C1=N[C@@H]1CCC[C@@H]12 [ITI-214]
striatal cGMP levels (PDE1 in striatal slices [1]): increased cyclic nucleotide levels

SMILES: C[C@H](CCC(=O)O)C[C@H](C)C[C@H](C)C(=O)/C=C(\O)[C@H](C)C[C@H](C)C/C=C/[C@@H](C)[C@@H](O)[C@@H](C)[C@@H](O)C[C@@H]1CC[C@@](C)([C@H]2CC[C@@](C)([C@@H](C)O)O2)O1 [Ionomycin, ionomycin]
striatal cGMP levels (PDE1 in striatal slices [2]): did not lead to elevated cGMP levels
calcium-sensitive phosphorylation of CaMKII [3]: increased

IC50 ([4]; Compound 2 1.5 nM, mouse cortex, read-out: IC50 for decrease of specific binding of Compound 2): 7.7 µM
binding of the radioligand in the presence of EGTA ([4]; FIG. 4, mouse cortex): prevented
binding activity remaining relative to absence of EGTA ([4]; excess (200 uM) EGTA, mouse cortex): approximately 5%
SMILES: O=C(O)CN(CCOCCOCCN(CC(=O)O)CC(=O)O)CC(=O)O [EGTA]

Ratio PDEx/PDE1A [5]: 1,561
Ki [6]: 2400 nM
Ratio PDEx/PDE1A (PDE1 (Bovine Brain) [7]): 0.67
Ki (PDE1 (Bovine Brain) [8]): 1 nM
Ki (PDE10A): 42.9 µM
Ratio PDEx/PDE1A (PDE10A): 27,687
Ki (PDE11A): 40.7 µM
Ratio PDEx/PDE1A (PDE11A): 26,289
Ki (PDE1A): 1.5 nM
Ratio PDEx/PDE1A (PDE1A): 1
Ki (PDE1B): 9.2 nM
Ratio PDEx/PDE1A (PDE1B): 5.9
Ki (PDE1C): 1.3 nM
Ratio PDEx/PDE1A (PDE1C): 0.85
Ki (PDE2A): > 100 µM
Ratio PDEx/PDE1A (PDE2A): >64,589
Ki (PDE3B): 78.9 µM
Ratio PDEx/PDE1A (PDE3B): 50,983
Ki (PDE4A): 6.6 µM
Ratio PDEx/PDE1A (PDE4A): 4,263
Ki (PDE5): 48.9 µM
Ratio PDEx/PDE1A (PDE5): 31,595
Ratio PDEx/PDE1A (PDE6 [9]): 9,122
Ki (PDE6 [10]): 14.1 µM
Ki (PDE7B): 13.1 µM
Ratio PDEx/PDE1A (PDE7B): 8,448
Ki (PDE8A): > 100 µM
Ratio PDEx/PDE1A (PDE8A): >64,589
Ki (PDE9A): > 100 µM
Ratio PDEx/PDE1A (PDE9A): >64,589
selectivity toward all other PDE families [11]: > 1000 fold
SMILES: CN1C(=O)c2c(nn(Cc3ccc(C4CCCN4C)cc3)c2Nc2ccc(F)cc2)N2CC(C)(C)N=C12 (stereo not shown) [Compound 1, 3-((4-fluorophenyl)amino)-5,7,7-trimethyl-2-(4-(1-methylpyrrolidin-2-yl)benzyl)-7,8-dihydro-2H-imidazo[1,2-a]pyrazolo[4,3-e]pyrimidin-4(5H)-one]
